# Laboratory results published in patent US10501452B2, “Lactam compound derivative and application thereof” (NHWA PHARMA. CORPORATION, priority 2015, dated 2019).
# Like-named read-outs stand apart in the source and are kept apart here.
# Assays:
# 5-HT1A = 5-HT1A (Rattus norvegicus (Rat), UniProt P19327); test: 5-HT1A receptor binding assay (3H-8-OH-DPAT); settings: rat cortex membrane, 3H-8-OH-DPAT
# Protocol: Rats were decapitated. […] Incubation at 37° C. was conducted for 10 min. […] Centrifugation was conducted and repeated 3 times.
# Materials for the Receptor Binding Assay
# D2 = D2 (Rattus norvegicus (Rat), UniProt P61169); test: D2 receptor binding assay (3H-Spiperone)
# Protocol: Rats were decapitated. Striatum of brain was rapidly taken on ice, 3 ml of buffer (0.05 M Tris-HCl buffer, containing NaCl 120 mM, KCl 5 mM, MgCl2 1 mM, CaCl2 1 mM) was added, homogenization was conducted, and then 5 ml of buffer was then added. The weight of the homogenized tubes were adjusted using a balance, and centrifugation was conducted. The supernatant was discarded, and 3 ml of buffer was added. Vortex mixer was used for blending, and then 5 ml of buffer was added. Centrifugation was conducted and repeated 3 times. The supernatant was discarded after centrifugation was completed, and the pellets were stored at −80° C. for future use.
# Beckman LS-6500 Multi-function Liquid Scintillation Counter was used.
# (1) The prepared membrane was applied with appropriate amount of buffer, and homogenizer was used for evenly dispersing. 15 tubes were mixed into a 100 ml container, and appropriate amount of buffer was added to give 50 ml of membrane suspension, which was reserved for future use.
# (§1) (2) 100 μL of membrane preparation and 100 μL of buffer were added into each reaction tube.
# (3) 100 μL of buffer was added into the total binding tube (TB), 100 μL of Butaclamol (final concentration 10^−5M) was added into the nonspecific binding tube (NB), 100 μL of the test compound (final concentration 10^−5M) was added into the specific binding tube (SB) of each test compound.
# (5) Each of the reaction tubes was incubated at 37° C. for 20 min. After the reaction was completed, the bound ligands were rapidly filtered under reduced pressure, and sufficiently washed with ice-chilled assay buffer. The filter was taken out and put into a 3 ml scintillation vial, and 2 ml of toluene scintillation cocktail was added and blended.
# (6) The scintillation vials were put into Liquid Scintillation Counter for counting. Inhibition rate(I%)=(Total binding tube cpm−compound cpm)/(Total binding tube cpm−nonspecific binding tube cpm)×100%
# Each assay for the compounds was conducted in duplicate for two individual tests.
# 5-HT2A = 5-HT2A (Rattus norvegicus (Rat), UniProt P14842); test: 5-HT2A receptor binding assay ([3H]-Ketanserin)
# Protocol: Rats were decapitated. Cortex of brain was rapidly taken on ice, and 3 ml of buffer (0.05 M Tris-HCl buffer: 6.05 g of Tris was dissolved in 1000 ml of double-distilled water, and concentrated HCl was used to adjust to pH 7.5) was added, homogenization was conducted, and then 5 ml of buffer was added. Incubation was conducted at 37° C. for 10 min, the weight of the tubes were adjusted using a balance after incubation. Centrifugation was conducted at 12000 rpm, 4° C. for 20 min, the supernatant was discarded, and 3 ml of buffer was added. Vortex mixer was used for blending, and then 5 ml of buffer was added. Centrifugation was conducted (repeated 3 times). After the centrifugation, the supernatant was discarded, and the pellets were stored at −80° C. for future use.
# (1) The prepared membrane was applied with buffer, and homogenizer was used for evenly dispersing. 15 tubes were mixed into a 100 ml container, and appropriate amount of buffer was added to give 50 ml of membrane suspension, which was reserved for future use.
# as §1
# (3) 100 μL of buffer was added into the total binding tube (TB), 100 μL of Methysergide (final concentration 10^−5M) was added into the nonspecific binding tube (NB), 100 μL of the test compound (final concentration 10^−5M) was added into the specific binding tube (SB) of each test compound.
# (5) Each of the reaction tubes was incubated at 37° C. for 15 min. After the reaction was completed, the bound ligands were rapidly filtered under reduced pressure, and sufficiently washed with ice-chilled assay buffer. The filter was taken out and put into a 3 ml scintillation vial, and 2 ml of toluene scintillation cocktail was added and blended.
# (6) The scintillation vial were put into Liquid Scintillation Counter for counting. Inhibition rate(I%)=(Total binding tube cpm−compound cpm)/(Total binding tube cpm−nonspecific binding tube cpm)×100%
# [1] = read-out: Ki (nM) D2, rat striatum membrane, 3H-Spiperone
# [2] = read-out: Ki (nM) 5-HT2A, rat cortex membrane, [3H]-Ketanserin
# Chain of 5-HT2A (P14842 whole entry): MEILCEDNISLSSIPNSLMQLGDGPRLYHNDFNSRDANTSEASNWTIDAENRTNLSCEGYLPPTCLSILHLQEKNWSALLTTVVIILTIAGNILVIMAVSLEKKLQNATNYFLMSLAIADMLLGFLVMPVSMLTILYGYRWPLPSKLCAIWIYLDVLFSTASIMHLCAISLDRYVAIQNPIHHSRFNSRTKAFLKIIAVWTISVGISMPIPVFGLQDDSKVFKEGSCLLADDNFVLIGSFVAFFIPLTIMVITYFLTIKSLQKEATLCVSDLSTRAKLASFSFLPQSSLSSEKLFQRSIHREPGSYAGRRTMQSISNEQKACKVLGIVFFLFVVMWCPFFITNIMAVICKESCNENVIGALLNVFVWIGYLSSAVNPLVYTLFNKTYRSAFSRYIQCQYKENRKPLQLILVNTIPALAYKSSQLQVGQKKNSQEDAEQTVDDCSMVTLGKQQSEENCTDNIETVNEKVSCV
# Chain of D2 (P61169 whole entry): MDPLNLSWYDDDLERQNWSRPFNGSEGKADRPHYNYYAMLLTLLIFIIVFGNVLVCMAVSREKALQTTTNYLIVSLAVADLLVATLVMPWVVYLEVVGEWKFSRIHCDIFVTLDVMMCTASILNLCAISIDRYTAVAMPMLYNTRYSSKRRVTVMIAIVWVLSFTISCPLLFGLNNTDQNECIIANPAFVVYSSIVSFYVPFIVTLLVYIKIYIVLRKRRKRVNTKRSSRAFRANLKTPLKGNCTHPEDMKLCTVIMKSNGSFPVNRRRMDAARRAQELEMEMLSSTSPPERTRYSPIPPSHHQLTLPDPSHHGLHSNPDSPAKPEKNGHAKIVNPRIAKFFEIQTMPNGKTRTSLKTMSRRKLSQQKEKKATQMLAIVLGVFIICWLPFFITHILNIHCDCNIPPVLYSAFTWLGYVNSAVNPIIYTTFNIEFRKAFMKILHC
# Chain of 5-HT1A (P19327 whole entry): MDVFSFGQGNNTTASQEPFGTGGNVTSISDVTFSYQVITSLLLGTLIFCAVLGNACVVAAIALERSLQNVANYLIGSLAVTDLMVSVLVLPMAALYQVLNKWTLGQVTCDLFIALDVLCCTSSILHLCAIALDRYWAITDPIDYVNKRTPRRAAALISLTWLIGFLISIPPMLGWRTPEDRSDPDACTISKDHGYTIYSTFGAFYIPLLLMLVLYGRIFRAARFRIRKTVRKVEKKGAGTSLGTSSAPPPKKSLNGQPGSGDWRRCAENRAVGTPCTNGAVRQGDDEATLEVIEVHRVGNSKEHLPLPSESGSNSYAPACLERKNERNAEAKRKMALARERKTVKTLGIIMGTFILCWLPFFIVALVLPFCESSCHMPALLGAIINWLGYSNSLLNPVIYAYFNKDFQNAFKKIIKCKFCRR
SMILES,Ki (5-HT1A) [nM],Ki (D2; [1]) [nM],Ki (5-HT2A; [2]) [nM],Ki (D2) [nM],Ki (5-HT2A) [nM]
"COc1ccccc1N1CCN(CCCCOc2ccc3c(c2)C(=O)N(C)CC3)CC1 [Compound 2, 7-(4-(4-(2-methoxyphenyl)piperazin-1-yl)butoxy)-2-methyl-3,4-dihydroisoquinolin-1(2H)-one]",11.3,120,36.8,,
"CN1CCc2ccc(OCCCN3CCN(c4cccc5ccccc45)CC3)cc2C1=O [Compound 6, 2-methyl-7-(3-(4-(naphthalen-1-yl)piperazin-1-yl)propoxy)-3,4-dihydroisoquinolin-1(2H)-one]",46.6,134,57,,
"CN1CCc2ccc(OCCCN3CCN(c4ccc5c(c4)OCO5)CC3)cc2C1=O [Compound 13, 7-(3-(4-(benzo[d][1,3]dioxol-5-yl)piperazin-1-yl)propoxy)-2-methyl-3,4-dihydroisoquinolin-1 (2H)-one]",12.8,235,3.6,,
"CN1CCc2ccc(OCCCN3CCN(c4ccc5ccccc5n4)CC3)cc2C1=O [Compound 15, 7-(3-(4-(quinolin-2-yl)piperazin-1-yl)propoxy)-2-methyl-3,4-dihydroisoquinolin-1(2H)-one]",157,1990,468,,
"CN1CCc2ccc(OCCCN3CCN(c4ccccc4)CC3)cc2C1=O [Compound 16, 2-methyl-7-(3-(4-phenylpiperazin-1-yl)propoxy)-3,4-dihydroisoquinolin-1(2H)-one]",569,> 2000,372,,
"CN1CCc2ccc(OCCCN3CCN(c4ccc(Cl)cc4)CC3)cc2C1=O [Compound 17, 7-(3-(4-(4-chlorophenyl)piperazin-1-yl)propoxy)-2-methyl-3,4-dihydroisoquinolin-1(2H)-one]",> 2000,> 2000,> 2000,,
"CN1CCc2ccc(OCCCN3CCN(c4ccccc4Cl)CC3)cc2C1=O [Compound 18, 7-(3-(4-(2-chlorophenyl)piperazin-1-yl)propoxy)-2-methyl-3,4-dihydroisoquinolin-1(2H)-one]",> 2000,> 2000,> 2000,,
"CN1CCc2ccc(OCCCN3CCN(c4ccc(F)cc4)CC3)cc2C1=O [Compound 19, 7-(3-(4-(4-fluorophenyl)piperazin-1-yl)propoxy)-2-methyl-3,4-dihydroisoquinolin-1(2H)-one]",746,1650,688,,
"COc1ccc(N2CCN(CCCOc3ccc4c(c3)C(=O)N(C)CC4)CC2)cc1 [Compound 21, 7-(3-(4-(4-methoxyphenyl)piperazin-1-yl)propoxy)-2-methyl-3,4-dihydroisoquinolin-1(2H)-one]",> 2000,> 2000,> 2000,,
"CN1CCc2ccc(OCCCN3CCN(c4ccccn4)CC3)cc2C1=O [Compound 23, 2-methyl-7-(3-(4-(pyridin-2-yl)piperazin-1-yl)propoxy)-3,4-dihydroisoquinolin-1(2H)-one]",> 2000,> 2000,369,,
"Cn1cnc2ccc(OCCCCN3CCN(Cc4ccccc4)CC3)cc2c1=O [Compound 26, 6-(4-(4-benzylpiperazin-1-yl)butoxy)-3-methylquinazolin-4(3H)-one]",56.9,> 2000,> 2000,,
"Cn1cnc2ccc(OCCCCN3CCc4ccccc4C3)cc2c1=O [Compound 27, 6-(4-(3,4-dihydroisoquinolin-2(1H)-yl)butoxy)-3-methylquinazolin-4(3H)-one]",57.9,500,66.2,,
"Cn1cnc2ccc(OCCCCN3CCN(c4ccc(F)cc4)CC3)cc2c1=O [Compound 29, 6-(4-(4-(4-fluorophenyl)piperazin-1-yl)butoxy)-3-methylquinazolin-4(3H)-one]",259,> 2000,347,,
"Cn1cnc2ccc(OCCCCN3CCN(c4ccccn4)CC3)cc2c1=O [Compound 30, 3-methyl-6-(4-(4-(pyridin-2-yl)piperazin-1-yl)butoxy)quinazolin-4(3H)-one]",> 2000,,,> 2000,> 2000
